From patent US5707966A, “Antithrombotic agents” (Eli Lilly and Company, priority 1995, dated 1998)
Structures can show the parent of a compound that is named as a salt. Where two headings read alike, the source gives them in different places.

Experiments:
Assay type in all cases: biochemical
[1] = system: Human plasma; assay: Human plasma anticoagulation, thrombin time (TT); conditions: concentration required to double the thrombin time, linear extrapolation
Procedure: (§1) Dog plasma and rat plasma is obtained from conscious mixed-breed hounds (either sex, Hazelton-LRE, Kalamazoo, Mich., U.S.A.) or from anesthetized male Sprague-Dawley rats (Harlan Sprague-Dawley, Inc., Indianapolis, Ind., U.S.A.) by venipuncture into 3.8 percent citrate. Fibrinogen is prepared from in-date ACD human blood as the fraction I-2 according to previous procedures and specifications. […] Human fibrinogen is also purchased as 98 percent pure/plasmin free from American Diagnostica, Greenwich, Conn. Coagulation reagents ACTIN, Thromboplastin, and Human plasma are from Baxter Healthcare Corp., Dade Division, Miami, Fla. Bovine thrombin from Parke-Davis ([…], Mich.) is used for coagulation assays in plasma.
(§2) Coagulation assay procedures are as previously described. […] A CoAScreener coagulation instrument (American LABor, Inc.) is used for all coagulation assay measurements. The prothrombin time (PT) is measured by adding 0.05 mL saline and 0.05 mL Thromboplastin-C reagent to 0.05 mL test plasma. The activated partial thromboplastin time (APTT) is measured by incubation of 0.05 mL test plasma with 0.05 mL Actin reagent for 120 seconds followed by 0.05 mL CaCl2 (0.02M). The thrombin time (TT) is measured by adding 0.05 mL saline and 0.05 mL thrombin (10 NIH units/mL) to 0.05 mL test plasma. The compounds of Formula I are added to human or animal plasma over a wide range of concentrations to determine prolongation effects on the APTT, PT, and TT assays. Linear extrapolations are performed to estimate the concentrations required to double the clotting time for each assay.

[2] = target: T1, factor Xa (Homo sapiens, UniProt P00742); assay: Kass with factor Xa, chromogenic substrate; conditions: substrate N-Benzoyl-Ile-Glu-Gly-Arg-p-nitroanilide
T1 construct: Human factors X, Xa, IXa, XIa, and XIIa are purchased; purchased Enzyme Research Laboratories, South Bend, Ind
Procedure: (§3) By substantially following the procedures described above for human thrombin, and using other human blood coagulation system serine proteases and proteases of the fibrinolytic system with the appropriate chromogenic substrates, identified below, selectivity of the compounds of the present invention with respect to the coagulation factor serine proteases and with respect to the fibrinolytic system serine proteases are evaluated as well as their substantial lack of interference with serine proteases of the fibrinolytic system. Thrombin inhibitors preferably should spare fibrinolysis induced by urokinase, tissue plasminogen activator (t-PA) and streptokinase. This would be important to the therapeutic use of such agents as an adjunct to streptokinase, t-PA or urokinase thrombolytic therapy and to the use of such agents as an endogenous fibrinolysis-sparing (with respect to t-PA and urokinase) antithrombotic agent. In addition to the lack of interference with the amidase activity of the fibrinolytic proteases, such fibrinolytic system sparing can be studied by the use of human plasma clots and their lysis by the respective fibrinolytic plasminogen activators.
(§4) Human factors X, Xa, IXa, XIa, and XIIa are purchased from Enzyme Research Laboratories, South Bend, Ind.; human urokinase from Leo Pharmaceuticals, Denmark; and recombinant activated Protein C (aPC) is prepared at Eli Lilly and Co. substantially according to U.S. Patent No. 4,981,952. Chromogenic substrates: N-Benzoyl-Ile-Glu-Gly-Arg-p-nitroanilide (for factor Xa); N-Cbz-D-Arg-Gly-Arg-p-nitroanilide (for factor IXa assay as the factor Xa substrate); Pyroglutamyl-Pro-Arg-p-nitroanilide (for Factor XIa and for aPC); H-D-Pro-Phe-Arg-p-nitroanilide (for factor XIIa); and Pyroglutamyl-Gly-Arg-p-nitroanilide (for urokinase); are purchased from KabiVitrum, Stockholm, Sweden, or from Midwest Biotech, Fishers, Ind. Bovine trypsin is purchased from Worthington Biochemicals, Freehold, N.J., and human plasma kallikrein from Kabi Vitrum, Stockholm, Sweden. Chromogenic substrate H-D-Pro-Phe-Arg-p-nitroanilide for plasma kallikrein is purchased from Kabi Vitrum, Stockholm, Sweden. N-Benzoyl-Phe-Val-Arg-p-nitroanilide, the substrate for human thrombin and for trypsin, is synthesized according to procedures described above for the compounds of the present invention, using known methods of peptide coupling from commercially available reactants or purchased from Midwest Biotech, Fishers, Ind.

[3] = target: Human Thrombin (Homo sapiens, UniProt P00734); assay: Inhibition of amidase activity of thrombin (Kass)
[4] = system: Human plasma; assay: Human plasma anticoagulation, activated partial thromboplastin time (APTT); conditions: concentration required to double the APTT, linear extrapolation
Procedure: as §1, §2

[5] = system: Human plasma; assay: Human plasma anticoagulation, prothrombin time (PT); conditions: concentration required to double the PT, linear extrapolation
Procedure: as §1, §2

[6] = target: T2, Bovine trypsin (Bos taurus, UniProt P00760); assay: Kass with trypsin, chromogenic substrate; conditions: substrate N-Benzoyl-Phe-Val-Arg-p-nitroanilide
T2 construct: Bovine trypsin is purchased; purchased Worthington Biochemicals, Freehold, N.J
T2 sequence (P00760 24-246): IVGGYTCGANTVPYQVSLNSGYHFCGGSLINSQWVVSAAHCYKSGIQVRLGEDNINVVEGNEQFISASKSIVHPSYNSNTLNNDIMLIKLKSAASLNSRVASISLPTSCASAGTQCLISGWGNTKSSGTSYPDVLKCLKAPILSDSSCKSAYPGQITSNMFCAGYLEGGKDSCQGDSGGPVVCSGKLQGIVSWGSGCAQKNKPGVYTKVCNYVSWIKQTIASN
Procedure: as §3, §4

[7] = target: T3, Human plasmin (Homo sapiens, UniProt P00747); assay: Kass with plasmin, chromogenic substrate; conditions: substrate H-D-Val-Leu-Lys-p-nitroanilide
T3 construct: Human plasmin is purchased; purchased Boehringer Mannheim, Indianapolis, Ind
Procedure: as §3
Human plasmin is purchased from Boehringer Mannheim, Indianapolis, Ind.; nt-PA is purchased as single chain activity reference from American Diagnostica, Greenwich, Conn. modified-t-PA6 (mt-PA6) is prepared at Eli Lilly and Company by procedure known in the art (See, Burck, et al., J. Biol. Chem., 265, […] (1990). Plasmin chromogenic substrate H-D-Val-Leu-Lys-p-nitroanilide and tissue plasminogen activator (t-PA) substrate H-D-Ile-Pro-Arg-p-nitroanilide are purchased from Kabi Vitrum, Stockholm, Sweden.

[8] = mean over a range of concentrations, […]

T3 sequence (P00747 97-810): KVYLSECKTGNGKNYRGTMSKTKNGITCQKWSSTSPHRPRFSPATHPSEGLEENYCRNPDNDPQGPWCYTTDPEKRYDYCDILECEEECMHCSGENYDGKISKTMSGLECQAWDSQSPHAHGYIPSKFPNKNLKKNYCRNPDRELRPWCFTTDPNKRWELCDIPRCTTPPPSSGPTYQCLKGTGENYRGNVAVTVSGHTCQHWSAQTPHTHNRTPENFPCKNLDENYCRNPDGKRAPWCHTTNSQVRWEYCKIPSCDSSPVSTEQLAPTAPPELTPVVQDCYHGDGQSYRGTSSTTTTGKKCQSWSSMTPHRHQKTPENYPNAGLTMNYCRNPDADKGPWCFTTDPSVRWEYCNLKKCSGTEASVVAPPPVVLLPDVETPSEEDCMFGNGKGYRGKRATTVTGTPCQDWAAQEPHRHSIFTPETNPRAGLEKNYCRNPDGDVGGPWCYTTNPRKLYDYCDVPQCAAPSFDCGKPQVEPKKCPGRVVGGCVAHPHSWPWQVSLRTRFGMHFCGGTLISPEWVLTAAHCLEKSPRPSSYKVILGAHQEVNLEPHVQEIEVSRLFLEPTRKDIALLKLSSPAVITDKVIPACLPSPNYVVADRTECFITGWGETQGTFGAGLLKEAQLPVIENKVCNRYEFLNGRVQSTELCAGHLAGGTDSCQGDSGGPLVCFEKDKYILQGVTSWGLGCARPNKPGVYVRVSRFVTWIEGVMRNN
T3 sequence (P00747 97-580 partner limits assumed): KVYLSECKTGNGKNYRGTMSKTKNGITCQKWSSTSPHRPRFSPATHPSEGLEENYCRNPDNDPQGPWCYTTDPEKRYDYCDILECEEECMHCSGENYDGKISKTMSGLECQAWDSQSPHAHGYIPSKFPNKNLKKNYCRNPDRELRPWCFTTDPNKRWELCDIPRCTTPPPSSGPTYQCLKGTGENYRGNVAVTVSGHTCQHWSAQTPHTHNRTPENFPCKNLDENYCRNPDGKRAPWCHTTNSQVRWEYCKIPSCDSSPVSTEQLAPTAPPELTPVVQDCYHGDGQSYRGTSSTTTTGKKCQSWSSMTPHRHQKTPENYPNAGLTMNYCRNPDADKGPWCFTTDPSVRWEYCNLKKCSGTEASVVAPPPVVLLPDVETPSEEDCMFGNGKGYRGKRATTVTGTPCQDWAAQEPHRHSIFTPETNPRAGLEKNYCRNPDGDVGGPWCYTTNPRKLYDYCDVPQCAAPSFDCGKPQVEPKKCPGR
T1 sequence (P00742 235-488 limits assumed): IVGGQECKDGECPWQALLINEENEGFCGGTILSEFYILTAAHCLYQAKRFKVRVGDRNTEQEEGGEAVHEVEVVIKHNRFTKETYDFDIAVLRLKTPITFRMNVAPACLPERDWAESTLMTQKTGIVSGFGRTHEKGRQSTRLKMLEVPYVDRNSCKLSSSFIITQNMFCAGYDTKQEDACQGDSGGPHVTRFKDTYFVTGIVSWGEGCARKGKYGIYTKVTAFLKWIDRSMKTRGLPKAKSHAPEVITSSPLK
T1 sequence (P00742 41-179 partner limits assumed): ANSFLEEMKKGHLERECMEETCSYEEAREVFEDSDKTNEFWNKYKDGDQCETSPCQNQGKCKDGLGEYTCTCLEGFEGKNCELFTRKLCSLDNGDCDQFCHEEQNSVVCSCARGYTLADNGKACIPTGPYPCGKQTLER

Compound | Kass Xa [2] | Kass Trypsin [6] | Kass Plasmin [7] | Kass Human Thrombin [3, 8] | Human Plasma Anticoagulation 2× Clotting time TT [1] | Kass Human Thrombin [3] | Human Plasma Anticoagulation 2× Clotting time APTT [4] | Human Plasma Anticoagulation 2× Clotting time PT [5]
N=C(N)c1ccc(CNC(=O)[C@@H]2C[C@@H]3CCCC[C@@H]3N2C(=O)[C@@H]2NCC[C@@H]3CCCC[C@@H]32)cc1 (relative stereo) [Example 42, D-1-Piq-cis-Ohi-p-NHCH2 C6 H4 C(NH)NH2.2HCl] | 0.07 × 10^6 (L/mole) | 43 × 10^6 (L/mole) | 0.12 × 10^6 (L/mole) |  | 20 ng/mL | 38 | 270 ng/mL | 320 ng/mL
N=C(N)c1ccc(CNC(=O)[C@@H]2C[C@@H]3CCCC[C@@H]3N2C(=O)[C@H]2C[C@H]3CCCC[C@H]3CN2)cc1 (relative stereo) [Example 43, D-3-Piq-cis-Ohi-p-NHCH2 C6 H4 C(NH)NH2.2HCl] | 0.05 × 10^6 (L/mole) | 100 × 10^6 (L/mole) | 0.30 × 10^6 (L/mole) | 1.4 × 10^6 (L/mole) | 280 ng/mL |  | 1,100 ng/mL | 930 ng/mL
N=C(N)c1ccc(CNC(=O)[C@@H]2C[C@@H]3CCCC[C@@H]3N2C(=O)[C@@H](Cc2ccccc2)NCC(=O)O)cc1 (relative stereo) [Example 47, HOOCCH2 -D-Phe-cis-Ohi-p-NHCH2 C6 H4 C(NH)NH2.HCl] | 0.04 × 10^6 (L/mole) | 82 × 10^6 (L/mole) | 0.18 × 10^6 (L/mole) |  | 12 ng/mL | 45 | 140 ng/mL | 270 ng/mL
CCS(=O)(=O)N[C@H](Cc1ccccc1)C(=O)N1CCC[C@H]1C(=O)NCCc1ccc(C(=N)N)cc1 [Example 26, EtSO2 -D-Phe-Pro-p-NHCH2 CH2 --C6 H4 C(=NH)NH2.HCl] | 0.01 × 10^6 (L/mole) | 0.21 × 10^6 (L/mole) | 0.01 × 10^6 (L/mole) | 13 × 10^6 (L/mole) | 37 ng/mL |  | 870 ng/mL | 750 ng/mL
CCS(=O)(=O)N[C@H](Cc1ccccc1)C(=O)N1CCC[C@H]1C(=O)NCc1ccc(NC(=N)N)cc1 [Example 34, EtSO2 -D-Phe-Pro-p-NHCH2 C6 H4 NHC(NH)NH2.HCl] | < 0.001 × 10^6 (L/mole) | 0.49 × 10^6 (L/mole) | 0.01 × 10^6 (L/mole) | 0.65 × 10^6 (L/mole) | 530 ng/mL |  | 4,900 ng/mL | 5,500 ng/mL

Second part, led by results:

Kass Xa [2] | Kass Trypsin [6] | Kass Plasmin [7] | Kass Human Thrombin [3, 8] | Compound | Human Plasma Anticoagulation 2× Clotting time TT [1] | Kass Human Thrombin [3] | Human Plasma Anticoagulation 2× Clotting time APTT [4] | Human Plasma Anticoagulation 2× Clotting time PT [5]
< 0.001 × 10^6 (L/mole) | 0.01 × 10^6 (L/mole) | < 0.001 × 10^6 (L/mole) | 0.43 × 10^6 (L/mole) | N=C(N)c1cccc(CNC(=O)[C@@H]2CCCN2C(=O)[C@@H]2NCC[C@@H]3CCCC[C@@H]32)c1 [Example 25, D-1-Piq-Pro-m-NHCH2 --C6 H4 C(=NH)NH2.HCl] | 1,430 ng/mL |  | 34,600 ng/mL | 40,400 ng/mL
0.03 × 10^6 (L/mole) | 0.04 × 10^6 (L/mole) | < 0.001 × 10^6 (L/mole) | 0.13 × 10^6 (L/mole) | N=C(N)c1ccc(CCCNC(=O)[C@@H]2CCCN2C(=O)[C@@H]2NCC[C@@H]3CCCC[C@@H]32)cc1 [Example 32, 1-Piq-Pro-p-NHCH2 CH2 CH2 --C6 H4 C(=NH)NH2.HCl] | 3,100 ng/mL |  | 28,500 ng/mL | 47,800 ng/mL
< 0.001 × 10^6 (L/mole) | 0.07 × 10^6 (L/mole) | < 0.001 × 10^6 (L/mole) | 1.1 × 10^6 (L/mole) | N=C(N)Nc1ccc(CNC(=O)[C@@H]2CCCN2C(=O)[C@@H]2NCC[C@@H]3CCCC[C@@H]32)cc1 [Example 38, D-1-Piq-Pro-p-NHCH2 C6 H4 NHC(NH)NH2.2HCl] | 540 ng/mL |  | 6,100 ng/mL | 11,100 ng/mL
< 0.001 × 10^6 (L/mole) | < 0.02 × 10^6 (L/mole) | < 0.001 × 10^6 (L/mole) | 0.12 × 10^6 (L/mole) | N=C(N)Nc1ccc(CCNC(=O)[C@@H]2CCCN2C(=O)[C@@H]2NCC[C@@H]3CCCC[C@@H]32)cc1 [Example 39, D-1-Piq-Pro-p-NHCH2 CH2 C6 H4 NHC(NH)NH2.2HCl] | 5,300 ng/mL |  | 69,200 ng/mL | 78,600 ng/mL
< 0.001 × 10^6 (L/mole) | 0.01 × 10^6 (L/mole) | < 0.001 × 10^6 (L/mole) | 0.03 × 10^6 (L/mole) | N=C(N)Nc1cccc(CNC(=O)[C@@H]2CCCN2C(=O)[C@@H]2NCC[C@@H]3CCCC[C@@H]32)c1 [Example 40, D-1-Piq-Pro-m-NHCH2 C6 H4 NHC(NH)NH2.2HCl] | 35,100 ng/mL |  | > 91,000 ng/mL | > 91,000 ng/mL
< 0.001 × 10^6 (L/mole) | < 0.001 × 10^6 (L/mole) | < 0.001 × 10^6 (L/mole) | 0.01 × 10^6 (L/mole) | N=C(N)Nc1cccc(CCNC(=O)[C@@H]2CCCN2C(=O)[C@@H]2NCC[C@@H]3CCCC[C@@H]32)c1 [Example 41, D-1-Piq-Pro-m-NHCH2 CH2 C6 H4 NHC(NH)NH2.2HCl] | 82,200 ng/mL |  | > 91,000 ng/mL | > 91,000 ng/mL
